Assay: Effective concentration as Adenylate cyclase activity was measured in rat homogenate

| Compound | EC50 [nM] |
| --- | --- |
| CCc1ccc2c(c1)[C@@H]1c3cc(O)c(O)cc3CC[C@H]1NC2 [(6aR,12bS)-2-Ethyl-5,6,6a,7,8,12b-hexahydro-benzo[a]phenanthridine-10,11-diol] | 610 |
| Oc1cc2c(cc1O)[C@H]1c3cc(-c4ccccc4)ccc3CN[C@@H]1CC2 [(6aR,12bS)-2-Phenyl-5,6,6a,7,8,12b-hexahydro-benzo[a]phenanthridine-10,11-diol] | 10 |
| Cc1ccc2c(c1)CN[C@@H]1CCc3cc(O)c(O)cc3[C@@H]21 [(6aR,12bS)-3-Methyl-5,6,6a,7,8,12b-hexahydro-benzo[a]phenanthridine-10,11-diol] | 134 |
| CCCN1Cc2cc(C)ccc2[C@@H]2c3cc(O)c(O)cc3CC[C@H]21 [(6aR,12bS)-3-Methyl-6-propyl-5,6,6a,7,8,12b-hexahydro-benzo[a]phenanthridine-10,11-diol] | 10 |
| Cc1cccc2c1CN[C@@H]1CCc3cc(O)c(O)cc3[C@@H]21 [(6aR,12bS)-4-Methyl-5,6,6a,7,8,12b-hexahydro-benzo[a]phenanthridine-10,11-diol] | 151 |
| Oc1ccc2c(c1)[C@@H]1c3cc(O)c(O)cc3CC[C@H]1NC2 [(6aR,12bS)-5,6,6a,7,8,12b-Hexahydro-benzo[a]phenanthridine-2,10,11-triol] | 148 |
| Oc1ccc2c(c1)CN[C@@H]1CCc3cc(O)c(O)cc3[C@@H]21 [(6aR,12bS)-5,6,6a,7,8,12b-Hexahydro-benzo[a]phenanthridine-3,10,11-triol] | 130 |

Source: BindingDB's records for doi:10.1021/jm00016a009 (Purdue University, 1995)
